# Measurements as given in patent US11958854B2 (Hydra Biosciences, LLC, priority 2013, dated 2024).
# Molecular target: T1, hTRPC4 (Homo sapiens, UniProt Q9UBN4)
# T1 sequence (Q9UBN4 1-977): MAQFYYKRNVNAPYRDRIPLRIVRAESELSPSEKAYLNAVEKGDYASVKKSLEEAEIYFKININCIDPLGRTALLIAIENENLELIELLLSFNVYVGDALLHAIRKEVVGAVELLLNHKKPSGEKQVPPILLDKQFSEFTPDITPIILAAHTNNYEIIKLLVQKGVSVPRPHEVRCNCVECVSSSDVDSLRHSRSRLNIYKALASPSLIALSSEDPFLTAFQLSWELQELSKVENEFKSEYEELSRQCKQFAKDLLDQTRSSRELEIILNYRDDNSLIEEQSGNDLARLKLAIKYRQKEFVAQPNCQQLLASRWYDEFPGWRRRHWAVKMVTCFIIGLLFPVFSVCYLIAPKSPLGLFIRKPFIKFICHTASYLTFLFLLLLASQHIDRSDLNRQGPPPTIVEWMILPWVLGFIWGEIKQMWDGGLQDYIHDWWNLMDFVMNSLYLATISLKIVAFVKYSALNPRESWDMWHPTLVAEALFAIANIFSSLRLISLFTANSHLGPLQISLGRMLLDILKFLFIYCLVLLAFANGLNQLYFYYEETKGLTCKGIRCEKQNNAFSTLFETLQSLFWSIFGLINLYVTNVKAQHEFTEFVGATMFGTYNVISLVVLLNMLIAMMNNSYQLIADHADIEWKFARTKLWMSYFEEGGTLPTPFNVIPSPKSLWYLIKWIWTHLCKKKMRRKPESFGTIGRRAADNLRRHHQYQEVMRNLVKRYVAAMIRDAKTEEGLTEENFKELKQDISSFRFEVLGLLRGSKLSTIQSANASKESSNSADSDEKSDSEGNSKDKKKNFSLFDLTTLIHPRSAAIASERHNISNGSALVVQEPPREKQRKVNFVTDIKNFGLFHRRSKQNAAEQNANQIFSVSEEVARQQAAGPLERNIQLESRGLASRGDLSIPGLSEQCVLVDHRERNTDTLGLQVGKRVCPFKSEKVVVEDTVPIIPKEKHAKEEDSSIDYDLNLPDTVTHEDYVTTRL
# Test: Whole-cell patch clamp, inward current (Table B)
# Format: cell-based
# Details: IC50 estimated by testing at 5 μM and 500 nM, all batches, read-out: hTRPC4 Patch Inwd (nM) (All Batches)
# Text: Patch clamp experiments permit the detection of currents through the TRPC5 channel in the cell line described above. In normal whole-cell patch clamp recordings, a glass electrode is brought into contact with a single cell and a high-resistance (gigaohm) seal is established with the cell membrane. The membrane is then ruptured to achieve the whole-cell configuration, permitting control of the voltage of the cell membrane and measurement of currents flowing across the membrane using the amplifier attached to the electrode and resulting in the replacement of cytoplasm with the pipette solution. A perfusion system permits control of the extracellular solution, including the addition of blockers and activators of the current.
# TRPC5 cells were induced 20-48 hours, removed from growth plates, and replated at low density (to attain good single-cell physical separation) on glass coverslips for measurement. In some cases, cells were grown in low density overnight on glass coverslips. Patch clamp recordings were made in the whole-cell mode with a holding potential of −40 mV. Every 5 seconds, a voltage ramp was applied from −120 to +100 mV, 400 ms in duration. Currents elicited were quantified at −80 mV and +80 mV. […] The external solution consisted of 150 mM NaCl, 4.5 mM KCl, 1 mM MgCl2, 2 mM CaCl2), 10 mM HEPES, 10 mM glucose, 1 mM EGTA, pH 7.4. […] Potential blockers were tested for ability to block both inward and outward currents in the continued presence of LaCl3.
# “F” refers to agonist compounds. “ND” refers to compounds wherein the IC50 was not determined.
row,IC50,SMILES
1,< 100 nM,Cn1c(=O)n(CCCO)c(=O)c2c1nc(Oc1cccc(OC(F)(F)F)c1)n2Cc1ccc(Cl)cc1 [Example 30]
2,< 100 nM,CCCOc1nc2c(c(=O)n(CCCO)c(=O)n2C)n1Cc1ccc(Cl)cc1 [Example 82]
3,< 100 nM,CCn1c(=O)n(CCCO)c(=O)c2c1nc(Oc1cccc(OC(F)(F)F)c1)n2Cc1ccccc1 [Example 145]
4,< 100 nM,Cc1cnc(Cn2c(Oc3cccc(OC(F)(F)F)c3)nc3c2c(=O)n(CCCO)c(=O)n3C)s1 [Example 161]
5,< 100 nM,CC(C)c1ccccc1-c1nc2c(c(=O)n(CCCO)c(=O)n2C)n1Cc1ccccc1 [Example 485]
6,< 100 nM,CC(C)CCn1c(Oc2cccc(OC(F)(F)F)c2)nc2c1c(=O)n(CCCO)c(=O)n2C [Example 587]
